What all share (assay type): biochemical
Experiment [1] concerns the target T1, HvExoI (β-D-glucan glucohydrolase) (Hordeum vulgare, UniProt Q9XEI3, E245A).
T1 sequence (Q9XEI3 26-630 E245A): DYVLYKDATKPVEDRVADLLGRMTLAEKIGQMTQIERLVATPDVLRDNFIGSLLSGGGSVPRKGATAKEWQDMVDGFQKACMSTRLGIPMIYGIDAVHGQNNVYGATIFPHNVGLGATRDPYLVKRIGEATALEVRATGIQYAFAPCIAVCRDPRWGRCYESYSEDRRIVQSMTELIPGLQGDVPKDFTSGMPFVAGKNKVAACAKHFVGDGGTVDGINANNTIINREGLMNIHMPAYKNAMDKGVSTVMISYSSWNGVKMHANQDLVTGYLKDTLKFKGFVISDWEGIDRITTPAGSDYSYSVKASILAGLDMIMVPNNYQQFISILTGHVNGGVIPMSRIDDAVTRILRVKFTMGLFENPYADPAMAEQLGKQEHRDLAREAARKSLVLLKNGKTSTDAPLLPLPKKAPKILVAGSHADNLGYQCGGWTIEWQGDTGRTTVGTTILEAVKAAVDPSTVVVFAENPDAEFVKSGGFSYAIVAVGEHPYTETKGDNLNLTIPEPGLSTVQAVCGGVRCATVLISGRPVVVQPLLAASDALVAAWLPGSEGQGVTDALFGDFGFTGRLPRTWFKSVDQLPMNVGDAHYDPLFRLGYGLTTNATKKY
The experiment in a line: X-ray crystal structure.

Experiment [2] concerns the target T2, HvExoI (β-D-glucan glucohydrolase) (Hordeum vulgare, UniProt Q9XEI3).
T2 sequence (Q9XEI3 26-630): T1 sequence (Q9XEI3 26-630 E245A) with A220E
The experiment is described as follows: competitive inhibition kinetics with 4NP-Glc.

The target in experiment [3] is T1, HvExoI (β-D-glucan glucohydrolase). The experiment is described as follows: competitive inhibition kinetics with 4NP-Glc.

Substitutions are numbered along the chain they refer to.

One may read the Ki as a dissociation constant, usually derived from enzyme kinetics or from competition with a known ligand. Low readings indicate tighter binding, high ones weaker binding. For `O=[N+]([O-])c1ccc(O[C@H]2O[C@H](CO)[C@@H](O)[C@H](O)[C@H]2F)c([N+](=O)[O-])c1` [2F-DNPGlc, 2,4-dinitrophenyl 2-deoxy-2-fluro-α-D-glucopyranoside], the Ki in experiment [1] and in experiment [2] was 500 nM in each case.
Compound `O=C1O[C@H](CO)[C@@H](O)[C@H](O)[C@H]1O` [glucono-δ-lactone] showed an inhibition constant (Ki) in experiment [3] of 103000 nM.

These data come from article PMC12065899 (Communications Biology, 2025).
